Source: PubChem BioAssay AID2060618 (Molecular Pharmacology Branch, DTP, NCI, 2025)
Where “and” joins values, the source holds several entries; their conditions need not be identical. Equal values may be shown once.

Test system: 454973-116-R2-J3-PDC spheroids, percent test/control viability
Experiment: Anticancer human tumor 454973-116-R2-J3-PDC patient-derived pancreatic carcinoma cell line growth inhibition [CLK]
Details: spheroids with HUVEC and MSC; for viability, T/C: stronger effect = lower value
Outline: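 Patient-derived tumor cells grown as complex spheroids with HUVEC endothelial cells and mesenchymal stem cells, treated with drug combinations. Concentrations descend in half-log steps from near clinical Cmax, or from 10 microM if Cmax unknown.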

[1] = curve of first compound, second compound 0.0316 µM
[2] = curve of first compound, second compound 0.1 µM
[3] = curve of first compound, second compound 0.316 µM
[4] = curve of first compound, second compound 1 µM
[5] = curve of first compound, second compound 3.16 µM
[6] = curve of first compound, second compound 10 µM
[7] = second compound 0.0316 µM, first compound 0.000316 µM
[8] = second compound 0.0316 µM, first compound 0.001 µM
[9] = second compound 0.0316 µM, first compound 0.00316 µM
[10] = second compound 0.0316 µM, first compound 0.01 µM
[11] = second compound 0.0316 µM, first compound 0.0316 µM
[12] = second compound 0.0316 µM, first compound 0.1 µM
[13] = second compound 0.1 µM, first compound 0.000316 µM
[14] = second compound 0.1 µM, first compound 0.001 µM
[15] = second compound 0.1 µM, first compound 0.00316 µM
[16] = second compound 0.1 µM, first compound 0.01 µM
[17] = second compound 0.1 µM, first compound 0.0316 µM
[18] = second compound 0.1 µM, first compound 0.1 µM
[19] = second compound 0.316 µM, first compound 0.000316 µM
[20] = second compound 0.316 µM, first compound 0.001 µM
[21] = second compound 0.316 µM, first compound 0.00316 µM
[22] = second compound 0.316 µM, first compound 0.01 µM
[23] = second compound 0.316 µM, first compound 0.0316 µM
[24] = second compound 0.316 µM, first compound 0.1 µM
[25] = second compound 1 µM, first compound 0.000316 µM
[26] = second compound 1 µM, first compound 0.001 µM
[27] = second compound 1 µM, first compound 0.00316 µM
[28] = second compound 1 µM, first compound 0.01 µM
[29] = second compound 1 µM, first compound 0.0316 µM
[30] = second compound 1 µM, first compound 0.1 µM
[31] = second compound 3.16 µM, first compound 0.000316 µM
[32] = second compound 3.16 µM, first compound 0.001 µM
[33] = second compound 3.16 µM, first compound 0.00316 µM
[34] = second compound 3.16 µM, first compound 0.01 µM
[35] = second compound 3.16 µM, first compound 0.0316 µM
[36] = second compound 3.16 µM, first compound 0.1 µM
[37] = second compound 10 µM, first compound 0.000316 µM
[38] = second compound 10 µM, first compound 0.001 µM
[39] = second compound 10 µM, first compound 0.00316 µM
[40] = second compound 10 µM, first compound 0.01 µM
[41] = second compound 10 µM, first compound 0.0316 µM
[42] = second compound 10 µM, first compound 0.1 µM
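Further: spheroids exposed to compounds for 7 days before readout.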

For `Cn1ncnc1[C@H]1c2n[nH]c(=O)c3cc(F)cc(c23)N[C@@H]1c1ccc(F)cc1`, the viability, T/C (compound 0.000316 µM) was 100% and 113%, the viability, T/C (compound 0.001 µM) was 96.3% and 104% and the viability, T/C (compound 0.00316 µM) was 105% and 102%. The viability, T/C (compound 0.01 µM) was 93.3% and 96.9%, the viability, T/C (compound 0.0316 µM) was 93.7% and 87.6% and the viability, T/C (compound 0.1 µM) was 91.9% and 89.7%. For the same compound, the IC50 (curve of compound) was > 100 nM.
In the case of `Cn1ncnc1[C@H]1c2n[nH]c(=O)c3cc(F)cc(c23)N[C@@H]1c1ccc(F)cc1` + CN1CCN(c2cc(C(=O)Nc3cc4cc(-c5cnn(C)c5)ccc4cn3)ccn2)CC1, the IC50 [1] is reported as > 100 nM, the IC50 [2] is reported as > 100 nM and the IC50 [3] is reported as < 0.316 nM. For the same compound, the IC50 [4] was < 0.316 nM, the IC50 [5] was < 0.316 nM and the IC50 [6] was < 0.316 nM. For the same compound, the viability, T/C [7] was 93.9%, the viability, T/C [8] was 99% and the viability, T/C [9] was 90.5%. For the same compound, the viability, T/C [10] was 92.9%, the viability, T/C [11] was 91.2% and the viability, T/C [12] was 85%. For the same compound, the viability, T/C [13] was 75.4%, the viability, T/C [14] was 75% and the viability, T/C [15] was 83.2%. For the same compound, the viability, T/C [16] was 71.3%, the viability, T/C [17] was 59.1% and the viability, T/C [18] was 50.1%. For the same compound, the viability, T/C [19] was 1.91%, the viability, T/C [20] was 2.28% and the viability, T/C [21] was 3.23%. For the same compound, the viability, T/C [22] was 4.91%, the viability, T/C [23] was 2.64% and the viability, T/C [24] was 2.84%. For the same compound, the viability, T/C [25] was 0.1%, the viability, T/C [26] was 1.11% and the viability, T/C [27] was 0.09%. It also gave a viability, T/C [28] of 0.08%, a viability, T/C [29] of 0.09% and a viability, T/C [30] of 0.1%. It also gave a viability, T/C [31] of 0.09%, a viability, T/C [32] of 0.12% and a viability, T/C [33] of 0.1%. The viability, T/C [34] was 1.05%, the viability, T/C [35] was 1.67% and the viability, T/C [36] was 0.12%. It also gave a viability, T/C [37] of 0.11%, a viability, T/C [38] of 0.16% and a viability, T/C [39] of 0.17%. The viability, T/C [40] was 0.29%, the viability, T/C [41] was 0.12% and the viability, T/C [42] was 0.14%.
For `CC1COCCN1c1cc(C2(S(C)(=N)=O)CC2)nc(-c2ccnc3[nH]ccc23)n1` (configuration not stated) + CNC(=O)c1ccc(Nc2nc(OC3CCCC3)c3c(-c4ccc5nc(C)oc5c4)c[nH]c3n2)c(OC)c1, the IC50 [1] was 6280 nM, the IC50 [2] was 7330 nM and the IC50 [3] was < 31.6 nM. For the same compound, the IC50 [4] was < 31.6 nM, the IC50 [5] was < 31.6 nM and the IC50 [6] was < 31.6 nM. The viability, T/C [11] was 96.7%, the viability, T/C [12] was 103% and the viability, T/C (second compound 0.0316 µM, first compound 0.316 µM) was 97.8%. For the same compound, the viability, T/C (second compound 0.0316 µM, first compound 1 µM) was 101%, the viability, T/C (second compound 0.0316 µM, first compound 3.16 µM) was 73.3% and the viability, T/C (second compound 0.0316 µM, first compound 10 µM) was 34.2%. The viability, T/C [17] was 103%, the viability, T/C [18] was 97.5% and the viability, T/C (second compound 0.1 µM, first compound 0.316 µM) was 94.7%. The viability, T/C (second compound 0.1 µM, first compound 1 µM) was 93.6%, the viability, T/C (second compound 0.1 µM, first compound 3.16 µM) was 84.4% and the viability, T/C (second compound 0.1 µM, first compound 10 µM) was 37.4%. The viability, T/C [23] was 37%, the viability, T/C [24] was 43.9% and the viability, T/C (second compound 0.316 µM, first compound 0.316 µM) was 45.1%. It also gave a viability, T/C (second compound 0.316 µM, first compound 1 µM) of 40.1%, a viability, T/C (second compound 0.316 µM, first compound 3.16 µM) of 48.3% and a viability, T/C (second compound 0.316 µM, first compound 10 µM) of 29.5%. The viability, T/C [29] was 27.9%, the viability, T/C [30] was 30.9% and the viability, T/C (second compound 1 µM, first compound 0.316 µM) was 30.5%. It also gave a viability, T/C (second compound 1 µM, first compound 1 µM) of 27.3%, a viability, T/C (second compound 1 µM, first compound 3.16 µM) of 25.3% and a viability, T/C (second compound 1 µM, first compound 10 µM) of 15.8%. The viability, T/C [35] was 30.4%, the viability, T/C [36] was 24.3% and the viability, T/C (second compound 3.16 µM, first compound 0.316 µM) was 28.9%. The viability, T/C (second compound 3.16 µM, first compound 1 µM) was 28.1%, the viability, T/C (second compound 3.16 µM, first compound 3.16 µM) was 19.3% and the viability, T/C (second compound 3.16 µM, first compound 10 µM) was 12.3%. It also gave a viability, T/C [41] of 29.8%, a viability, T/C [42] of 27.3% and a viability, T/C (second compound 10 µM, first compound 0.316 µM) of 27.5%. It also gave a viability, T/C (second compound 10 µM, first compound 1 µM) of 25.5%, a viability, T/C (second compound 10 µM, first compound 3.16 µM) of 17.4% and a viability, T/C (second compound 10 µM, first compound 10 µM) of 10.3%.
For `C=C(F)C(=O)N1CCN(c2nc(OCC3CCCN3C)nc3c2CCN(c2cccc4cccc(Cl)c24)C3)CC1CC#N` (configuration not stated), the viability, T/C (compound 0.0316 µM) was 105% and 106%, the viability, T/C (compound 0.1 µM) was 102% and 107% and the viability, T/C (compound 0.316 µM) was 110% and 114%. For the same compound, the viability, T/C (compound 1 µM) was 93.8% and 109%, the viability, T/C (compound 3.16 µM) was 104% and 105% and the viability, T/C (compound 10 µM) was 1.39% and 0.39%. For the same compound, the IC50 (curve of compound) was 5770 nM and 5780 nM.
With `Nc1ccn(C2OC(CO)C(O)C2(F)F)c(=O)n1` (configuration not stated) the viability, T/C (compound 0.0316 µM) was 11% and 7.61%, the viability, T/C (compound 0.1 µM) was 8.58% and 9.53% and the viability, T/C (compound 0.316 µM) was 8.12% and 7.99%. For the same compound, the viability, T/C (compound 1 µM) was 10.4% and 8.26%, the viability, T/C (compound 3.16 µM) was 9.96% and 7.45% and the viability, T/C (compound 10 µM) was 9.46% and 9.19%. For the same compound, the IC50 (curve of compound) was < 31.6 nM.
In the case of `Cn1ncnc1[C@H]1c2n[nH]c(=O)c3cc(F)cc(c23)N[C@@H]1c1ccc(F)cc1` + CNC(=O)c1ccc(Nc2nc(OC3CCCC3)c3c(-c4ccc5nc(C)oc5c4)c[nH]c3n2)c(OC)c1, the IC50 [1] is reported as > 100 nM, the IC50 [2] is reported as > 100 nM and the IC50 [3] is reported as < 0.316 nM. For the same compound, the IC50 [4] was < 0.316 nM, the IC50 [5] was < 0.316 nM and the IC50 [6] was < 0.316 nM. For the same compound, the viability, T/C [7] was 110%, the viability, T/C [8] was 114% and the viability, T/C [9] was 110%. The viability, T/C [10] was 119%, the viability, T/C [11] was 105% and the viability, T/C [12] was 86.2%. For the same compound, the viability, T/C [13] was 113%, the viability, T/C [14] was 104% and the viability, T/C [15] was 104%. The viability, T/C [16] was 106%, the viability, T/C [17] was 104% and the viability, T/C [18] was 86.4%. The viability, T/C [19] was 43.1%, the viability, T/C [20] was 51.2% and the viability, T/C [21] was 50.8%. For the same compound, the viability, T/C [22] was 52.2%, the viability, T/C [23] was 52.2% and the viability, T/C [24] was 48.1%. The viability, T/C [25] was 33.1%, the viability, T/C [26] was 31.5% and the viability, T/C [27] was 27.8%. It also gave a viability, T/C [28] of 36.4%, a viability, T/C [29] of 31.1% and a viability, T/C [30] of 23.5%. For the same compound, the viability, T/C [31] was 29.2%, the viability, T/C [32] was 26.7% and the viability, T/C [33] was 29%. For the same compound, the viability, T/C [34] was 25.7%, the viability, T/C [35] was 23.9% and the viability, T/C [36] was 21.4%. For the same compound, the viability, T/C [37] was 25.5%, the viability, T/C [38] was 27.6% and the viability, T/C [39] was 25.8%. The viability, T/C [40] was 21.7%, the viability, T/C [41] was 24.5% and the viability, T/C [42] was 19.6%.
